Values after ≈ are worked out from the molar mass of the structure shown. Active and inactive are the calls of the source. The calls are words filed in the database; no cut-off is given here.
What was measured:
Klebsiella pneumoniae [1] = test: Antibacterial activity against […] assessed as bacterial growth inhibition incubated for 20 to 22 hrs by CLSI based analysis; format: functional; details: time 20-22 hrs
[2] = Aqueous solubility of compound at pH 5.5; format: physicochemical; details: buffer
Escherichia coli [3] = test: Antibacterial activity against multidrug-resistant Escherichia coli UT189 assessed as bacterial growth inhibition incubated for 20 to 22 hrs by CLSI based analysis; format: functional; details: time 20-22 hrs
Klebsiella pneumoniae [4] = test: Antibacterial activity against multidrug-resistant Klebsiella pneumoniae B817 assessed as bacterial growth inhibition incubated for 20 to 22 hrs by CLSI based analysis; format: functional; details: time 20-22 hrs
Providencia stuartii = test: Antibacterial activity against multidrug-resistant Providencia stuartii ATCC 49809 assessed as bacterial growth inhibition incubated for 20 to 22 hrs by CLSI based analysis; format: functional; details: time 20-22 hrs
Acinetobacter baumannii [5] = test: Antibacterial activity against multidrug-resistant Acinetobacter baumannii R831 assessed as bacterial growth inhibition incubated for 20 to 22 hrs by CLSI based analysis; format: functional; details: time 20-22 hrs
Pseudomonas aeruginosa = test: Antibacterial activity against multidrug-resistant Pseudomonas aeruginosa PAO1 assessed as bacterial growth inhibition incubated for 20 to 22 hrs by CLSI based analysis; format: functional; details: time 20-22 hrs
Klebsiella pneumoniae [6] = test: Antibacterial activity against multidrug-resistant Klebsiella pneumoniae R1525 assessed as bacterial growth inhibition incubated for 20 to 22 hrs by CLSI based analysis; format: functional; details: time 20-22 hrs
Acinetobacter baumannii [7] = test: Antibacterial activity against multidrug-resistant Acinetobacter baumannii R835 assessed as bacterial growth inhibition incubated for 20 to 22 hrs by CLSI based analysis; format: functional; details: time 20-22 hrs
Proteus mirabilis = test: Antibacterial activity against multidrug-resistant Proteus mirabilis ATCC 7002 assessed as bacterial growth inhibition incubated for 20 to 22 hrs by CLSI based analysis; format: functional; details: time 20-22 hrs
Klebsiella pneumoniae [8] = test: Antibacterial activity against multidrug-resistant Klebsiella pneumoniae G199 assessed as bacterial growth inhibition incubated for 20 to 22 hrs by CLSI based analysis; format: functional; details: time 20-22 hrs
[9] = AUClast in Swiss mouse Lung at 3 mg/kg, iv measured upto 24 hrs by LC-MS/MS analysis; format: ADME, organism-based; parameters: time < 24 hrs, dose 3 mg/kg, route iv
[10] = Metabolic stability in mouse lung assessed as parent compound remaining measured after 4 hrs by UPLC-MS analysis; format: ADME, tissue-based; details: mouse lung, read-out: Stability
[11] = Ratio of AUC in Lung to plasma in Swiss mouse at 3 mg/kg, iv measured upto 24 hrs by LC-MS/MS analysis; format: ADME, organism-based; details: read-out: Ratio AUC
Escherichia coli [12] = test: Antibacterial activity against Escherichia coli UT189 infected in Swiss albino mouse model of urinary tract infection assessed as log reduction in bacteremia in kidney at 10 mg/kg, iv pre-infected with bacteria for 24 hrs followed by compound treatment for every 24 hrs for 3 days; format: functional; details: time 3 day
Klebsiella pneumoniae [13] = test: Antibacterial activity against multidrug-resistant Klebsiella pneumoniae BAA2146 assessed as bacterial growth inhibition incubated for 20 to 22 hrs by CLSI based analysis; format: functional; details: time 20-22 hrs
[14] = Half life in Swiss mouse at 3 mg/kg, iv measured upto 24 hrs by LC-MS/MS analysis; format: ADME, organism-based; details: in vivo
[15] = Toxicity in Swiss albino mouse at 10 mg/kg, iv measured after 1 hr; format: organism-based; details: in vivo
HepG2 = test: Cytotoxicity against human HepG2 cells assessed as inhibition of cell growth at 30 uM incubated for 40 hrs by celltiterglo assay; format: functional
Staphylococcus aureus = test: Antibacterial activity against multidrug-resistant Staphylococcus aureus ATCC 33592 assessed as bacterial growth inhibition incubated for 20 to 22 hrs by CLSI based analysis; format: functional; details: time 20-22 hrs

CO[C@@H](CNC(=O)[C@H](NC(=O)[C@H](O)[C@H](C)O)[C@H](O)c1cncn1C)[C@H](O)[C@H](O)C(=O)N(C)[C@@H](Cc1ccccc1)C(=O)NCC(=O)N[C@H](C(=O)N[C@@H](CO)C(=O)N[C@H](C(=O)N[C@H](C(=O)N[C@@H](CC(=O)O)C(=O)N1CCC[C@H]1C(=O)NCc1cc(=O)c(O)cn1O)C(C)(C)C)C(C)(C)O)C(C)(C)O
MIC (Klebsiella pneumoniae [1]): 0.06 µg/mL (≈ 0.0415 µM)
solubility [2]: 9100 µg/mL (≈ 6290 µM)
MIC (Escherichia coli [3]): 0.01 µg/mL (≈ 0.00691 µM)
MIC (Klebsiella pneumoniae [4]): 0.03 µg/mL (≈ 0.0207 µM)
MIC (Providencia stuartii): 0.06 µg/mL (≈ 0.0415 µM)
MIC (Acinetobacter baumannii [5]): 2 µg/mL (≈ 1.38 µM)
MIC (Pseudomonas aeruginosa): > 32 µg/mL
MIC (Klebsiella pneumoniae [6]): 0.06 µg/mL (≈ 0.0415 µM)
MIC (Acinetobacter baumannii [7]): 0.06 µg/mL (≈ 0.0415 µM)
MIC (Proteus mirabilis): 0.12 µg/mL (≈ 0.0829 µM)
MIC (Klebsiella pneumoniae [8]): 0.06 µg/mL (≈ 0.0415 µM)
AUC(0-t) at 24 h [9]: 1010 ng·h/mL
remaining at 4 h [10]: 80%
Kp at 24 h [11]: 0.4
log(activity) (Escherichia coli [12]): 3.6
MIC (Klebsiella pneumoniae [13]): 0.12 µg/mL (≈ 0.0829 µM)
half-life [14]: 15 min
Activity [15]: Non-Toxic
Activity (HepG2): inactive
MIC (Staphylococcus aureus): 4 µg/mL (≈ 2.76 µM)

Reference: ChEMBL document CHEMBL5356971, “Optimization of the Antibacterial Spectrum and the Developability Profile of the Novel-Class Natural Product Corramycin” (J Med Chem, 2023)
